Data: ChEMBL document CHEMBL1909046, “DrugMatrix in vitro pharmacology data”

What was measured:
[1] = target: T1, Alpha-1A adrenergic receptor (Rattus norvegicus, UniProt P43140); test: DRUGMATRIX: Alpha-1A adrenergic receptor radioligand binding (ligand: prazosin); assay type: cell membranes, Wistar, Submaxillary gland, Membrane; details: Not Active = under 50% inhibition at 10 µM
T1 sequence (P43140 whole entry): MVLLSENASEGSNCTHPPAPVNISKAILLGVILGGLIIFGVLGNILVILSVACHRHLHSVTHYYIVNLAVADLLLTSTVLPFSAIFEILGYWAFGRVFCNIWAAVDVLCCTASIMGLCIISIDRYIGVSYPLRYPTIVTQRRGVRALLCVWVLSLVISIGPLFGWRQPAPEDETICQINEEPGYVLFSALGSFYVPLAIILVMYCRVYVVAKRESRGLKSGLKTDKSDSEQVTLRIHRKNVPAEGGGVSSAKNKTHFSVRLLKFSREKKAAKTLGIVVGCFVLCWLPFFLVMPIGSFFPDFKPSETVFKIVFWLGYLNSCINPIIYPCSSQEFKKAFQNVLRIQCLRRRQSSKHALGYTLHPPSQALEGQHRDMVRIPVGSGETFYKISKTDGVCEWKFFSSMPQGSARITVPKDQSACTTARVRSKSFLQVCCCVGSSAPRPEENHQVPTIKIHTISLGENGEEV

[2] = target: 5-hydroxytryptamine receptor 2B (Homo sapiens, UniProt P41595); assay type: cell membranes, CHO-K1, Membrane; note: in other assays of this panel Not Active means under 50% inhibition at 10 µM
Sequence of 5-hydroxytryptamine receptor 2B (P41595 whole entry): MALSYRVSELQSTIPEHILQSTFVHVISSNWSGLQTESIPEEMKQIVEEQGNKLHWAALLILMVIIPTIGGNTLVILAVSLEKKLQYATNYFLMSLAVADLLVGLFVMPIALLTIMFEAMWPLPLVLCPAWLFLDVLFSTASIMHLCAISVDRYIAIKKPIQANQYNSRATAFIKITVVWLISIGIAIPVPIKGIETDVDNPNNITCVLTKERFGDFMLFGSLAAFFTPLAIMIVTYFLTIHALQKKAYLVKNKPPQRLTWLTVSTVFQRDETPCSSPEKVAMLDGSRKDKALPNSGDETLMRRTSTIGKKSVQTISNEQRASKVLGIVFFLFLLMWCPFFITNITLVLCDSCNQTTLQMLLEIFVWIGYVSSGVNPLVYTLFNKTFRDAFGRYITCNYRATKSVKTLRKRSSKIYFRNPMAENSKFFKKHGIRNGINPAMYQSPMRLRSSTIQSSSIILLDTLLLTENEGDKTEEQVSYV

Substance-P receptor = Substance-P receptor (Homo sapiens, UniProt P25103); assay type: cell membranes, Membrane; details: cho; note: in other assays of this panel Not Active means under 50% inhibition at 10 µM
Sequence of Substance-P receptor (P25103 whole entry): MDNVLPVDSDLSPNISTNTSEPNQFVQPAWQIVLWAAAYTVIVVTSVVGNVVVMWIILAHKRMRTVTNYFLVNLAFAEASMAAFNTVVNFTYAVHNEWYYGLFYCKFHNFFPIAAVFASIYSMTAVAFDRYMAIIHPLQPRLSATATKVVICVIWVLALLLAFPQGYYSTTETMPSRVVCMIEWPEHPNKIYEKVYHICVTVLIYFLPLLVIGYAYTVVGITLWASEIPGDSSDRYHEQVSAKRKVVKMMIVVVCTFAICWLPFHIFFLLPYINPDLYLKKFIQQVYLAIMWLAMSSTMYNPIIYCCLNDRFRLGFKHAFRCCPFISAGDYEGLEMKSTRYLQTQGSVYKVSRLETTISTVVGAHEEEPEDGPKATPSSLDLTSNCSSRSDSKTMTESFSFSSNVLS

Thromboxane-A synthase = target: T2, Thromboxane-A synthase (Homo sapiens, UniProt P24557); test: biochemical; assay type: tissue-based, Platelet;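 note: enzyme inhibition assay with PGH2 supplied as substrate; in other assays of this panel Not Active means under 50% inhibition at 10 µM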
T2 sequence (P24557 whole entry): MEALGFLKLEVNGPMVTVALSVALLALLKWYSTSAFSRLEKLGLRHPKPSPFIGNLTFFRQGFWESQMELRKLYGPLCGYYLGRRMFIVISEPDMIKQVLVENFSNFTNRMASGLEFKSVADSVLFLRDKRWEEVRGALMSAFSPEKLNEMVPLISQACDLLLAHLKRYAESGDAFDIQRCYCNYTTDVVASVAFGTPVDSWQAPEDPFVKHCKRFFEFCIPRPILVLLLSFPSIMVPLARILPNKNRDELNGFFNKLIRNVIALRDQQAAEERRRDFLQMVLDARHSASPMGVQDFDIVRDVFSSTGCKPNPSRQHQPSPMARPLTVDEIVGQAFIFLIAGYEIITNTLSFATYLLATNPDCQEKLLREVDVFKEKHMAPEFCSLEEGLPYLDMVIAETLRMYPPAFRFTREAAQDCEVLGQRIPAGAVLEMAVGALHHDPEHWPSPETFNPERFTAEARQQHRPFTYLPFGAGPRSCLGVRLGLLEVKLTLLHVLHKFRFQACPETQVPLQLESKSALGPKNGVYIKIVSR

[3] = DRUGMATRIX: GABAA, Chloride Channel, TBOB radioligand binding (ligand: [3H] TBOB); assay type: cell membranes, Rattus norvegicus, Wistar, Cerebral cortex, Membrane; details: Not Active = under 50% inhibition at 10 µM
Neutrophil elastase = target: T3, Neutrophil elastase (Homo sapiens, UniProt P08246); assay type: tissue-based;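 note: inhibition of neutrophil elastase enzyme activity, measured with a p-nitroanilide-linked peptide substrate; in other assays of this panel Not Active means under 50% inhibition at 10 µM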
T3 sequence (P08246 whole entry): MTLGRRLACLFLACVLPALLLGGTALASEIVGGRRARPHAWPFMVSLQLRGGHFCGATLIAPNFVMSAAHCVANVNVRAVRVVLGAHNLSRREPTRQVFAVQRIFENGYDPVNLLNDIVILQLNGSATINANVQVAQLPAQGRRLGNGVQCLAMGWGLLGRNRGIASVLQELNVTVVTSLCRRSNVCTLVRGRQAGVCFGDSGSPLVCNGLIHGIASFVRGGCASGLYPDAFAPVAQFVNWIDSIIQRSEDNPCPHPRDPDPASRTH

[4] = target: Matrix metalloproteinase-9 (Homo sapiens, UniProt P14780); assay type: cell-based
Sequence of Matrix metalloproteinase-9 (P14780 whole entry): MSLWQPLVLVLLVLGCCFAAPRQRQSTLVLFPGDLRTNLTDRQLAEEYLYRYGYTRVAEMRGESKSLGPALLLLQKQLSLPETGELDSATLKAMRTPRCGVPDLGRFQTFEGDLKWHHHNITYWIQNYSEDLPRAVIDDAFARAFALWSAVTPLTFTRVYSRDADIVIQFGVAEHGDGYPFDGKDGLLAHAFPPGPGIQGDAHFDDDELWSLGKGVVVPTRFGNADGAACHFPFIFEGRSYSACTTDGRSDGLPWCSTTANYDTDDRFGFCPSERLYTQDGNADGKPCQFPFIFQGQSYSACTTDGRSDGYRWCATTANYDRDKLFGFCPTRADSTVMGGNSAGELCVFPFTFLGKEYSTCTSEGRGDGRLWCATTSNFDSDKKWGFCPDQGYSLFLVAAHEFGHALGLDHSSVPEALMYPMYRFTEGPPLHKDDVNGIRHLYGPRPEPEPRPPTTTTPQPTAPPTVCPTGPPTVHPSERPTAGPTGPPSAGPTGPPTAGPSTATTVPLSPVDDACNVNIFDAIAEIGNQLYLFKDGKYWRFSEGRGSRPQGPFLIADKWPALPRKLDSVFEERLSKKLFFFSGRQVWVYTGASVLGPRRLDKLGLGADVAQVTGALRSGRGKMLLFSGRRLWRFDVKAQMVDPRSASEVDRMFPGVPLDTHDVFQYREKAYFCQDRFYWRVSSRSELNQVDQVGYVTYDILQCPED

Compound	IC50 [1]	IC50 ([2]; cho-k1)	IC50 (Substance-P receptor)	IC50 (Thromboxane-A synthase; platelet)	IC50 [3]	Ki [3]	IC50 (Neutrophil elastase)	IC50 [4]	Ki [1]	Ki ([2]; cho-k1)	Ki (Substance-P receptor)	Ki (Thromboxane-A synthase; platelet)	Ki (Neutrophil elastase)	Ki [4]	IC50 ([2]; read-out: IC50) [µM]	Ki ([2]; read-out: Ki) [µM]	IC50 (Thromboxane-A synthase; read-out: IC50) [µM]
Cc1c(N)nc([C@H](CC(N)=O)NC[C@H](N)C(N)=O)nc1C(=O)N[C@H](C(=O)N[C@H](C)[C@@H](O)[C@H](C)C(=O)N[C@H](C(=O)NCCc1nc(-c2nc(C(=O)NCCC[S+](C)C)cs2)cs1)[C@@H](C)O)[C@@H](O[C@@H]1O[C@@H](CO)[C@@H](O)[C@H](O)[C@@H]1O[C@H]1O[C@H](CO)[C@@H](O)[C@H](OC(N)=O)[C@@H]1O)c1c[nH]cn1.[Br-] [BLEOMYCIN A2]	Not Active	Not Active	Not Active	Not Active	Not Active	Not Active	Not Active	Not Active									
CN(Cc1cc(Br)cc(Br)c1N)C1CCCCC1 [BROMHEXINE]	Not Active	Not Active	Not Active	Not Active	Not Active	Not Active	Not Active	Not Active									
COPPER(II) OXIDE	Not Active	Not Active	Not Active	Not Active	Not Active	Not Active	Not Active	Not Active	Not Active	Not Active	Not Active	Not Active	Not Active	Not Active			
NC(N)=Nc1nc(CSCCC(N)=NS(N)(=O)=O)cs1 [FAMOTIDINE]	Not Active	Not Active	Not Active	Not Active	Not Active	Not Active	Not Active	Not Active									
CC(C)(c1ccc(O)cc1)c1ccc(O)cc1 [BISPHENOL A]	Not Active	Not Active	Not Active	Not Active	Not Active	Not Active	Not Active	Not Active									
c1ccc2sc(SSc3nc4ccccc4s3)nc2c1 [BENZOTHIAZYL DISULFIDE]	Not Active	Not Active	Not Active	Not Active	Not Active	Not Active	Not Active	Not Active									
CC(=O)Nc1ccc2c(c1)Cc1ccccc1-2 [2-ACETYLAMINOFLUORENE]	Not Active		Not Active	Not Active	Not Active	Not Active	Not Active	Not Active							3.17	2.02	
c1ccc(Cn2ccnc2)cc1	Not Active	Not Active	Not Active		Not Active	Not Active	Not Active	Not Active									0.602
Nc1ccc(Cc2ccc(N)cc2)cc1	Not Active	Not Active	Not Active	Not Active	Not Active	Not Active	Not Active	Not Active									
CCO [ALCOHOL]	Not Active	Not Active	Not Active	Not Active	Not Active	Not Active	Not Active	Not Active									
CC[C@H]1OC(=O)[C@H](C)[C@@H](O[C@H]2C[C@@](C)(OC)[C@@H](O)[C@H](C)O2)[C@H](C)[C@@H](O[C@@H]2O[C@H](C)C[C@H](N(C)C)[C@H]2O)[C@](C)(O)C[C@@H](C)C(=O)[C@H](C)[C@@H](O)[C@]1(C)O [ERYTHROMYCIN]	Not Active	Not Active	Not Active	Not Active	Not Active	Not Active	Not Active	Not Active									
O=C(O)CNCP(=O)(O)O [GLYPHOSATE]	Not Active	Not Active	Not Active	Not Active	Not Active	Not Active	Not Active	Not Active									
Nc1nc(N)c2nc(CNc3ccc(C(=O)N[C@@H](CCC(=O)O)C(=O)O)cc3)cnc2n1 [AMINOPTERIN]	Not Active	Not Active	Not Active	Not Active	Not Active	Not Active	Not Active	Not Active									
CC(C)Cn1cnc2c(N)nc3ccccc3c21 [IMIQUIMOD]	Not Active	Not Active	Not Active	Not Active	Not Active	Not Active	Not Active	Not Active									
C[N+](C)(C)CCOP(=O)([O-])OC[C@H](O)CO	Not Active	Not Active	Not Active	Not Active	Not Active	Not Active	Not Active	Not Active									
OC[C@H]1O[C@@H]2O[C@H]3[C@H](O)[C@@H](O)[C@@H](O[C@H]4[C@H](O)[C@@H](O)[C@@H](O[C@H]5[C@H](O)[C@@H](O)[C@@H](O[C@H]6[C@H](O)[C@@H](O)[C@@H](O[C@H]7[C@H](O)[C@@H](O)[C@@H](O[C@H]8[C@H](O)[C@@H](O)[C@@H](O[C@H]1[C@H](O)[C@H]2O)O[C@@H]8CO)O[C@@H]7CO)O[C@@H]6CO)O[C@@H]5CO)O[C@@H]4CO)O[C@@H]3CO [BETADEX]	Not Active	Not Active	Not Active	Not Active	Not Active	Not Active	Not Active	Not Active									
CARBOXYMETHYLCELLULOSE	Not Active	Not Active	Not Active	Not Active	Not Active	Not Active	Not Active	Not Active	Not Active	Not Active	Not Active	Not Active	Not Active	Not Active			
O=C(O)COC(=O)Cc1ccccc1Nc1c(Cl)cccc1Cl [ACECLOFENAC]	Not Active	Not Active	Not Active	Not Active	Not Active	Not Active	Not Active	Not Active									
COc1ccc(C[C@H](N)C(=O)N[C@H]2[C@@H](O)[C@H](n3cnc4c(N(C)C)ncnc43)O[C@@H]2CO)cc1 [PUROMYCIN]	Not Active	Not Active	Not Active	Not Active	Not Active	Not Active	Not Active	Not Active									
O=C(O)c1ccccc1 [BENZOIC ACID]	Not Active	Not Active	Not Active	Not Active	Not Active	Not Active	Not Active	Not Active									
C[C@H]1C[C@H]2[C@@H]3CCC4=CC(=O)C=C[C@]4(C)[C@@]3(F)[C@@H](O)C[C@]2(C)[C@@]1(O)C(=O)CO [BETAMETHASONE]	Not Active	Not Active	Not Active	Not Active	Not Active	Not Active	Not Active	Not Active									
Oc1ccccc1 [PHENOL]	Not Active	Not Active	Not Active	Not Active	Not Active	Not Active	Not Active	Not Active									
C[C@H](C(=O)O)c1ccc2oc(-c3ccc(F)cc3)nc2c1 [FLUNOXAPROFEN]	Not Active	Not Active	Not Active	Not Active	Not Active	Not Active	Not Active	Not Active									
